Measured values from patent US20220313650A1, “METHODS FOR TREATING NEURODEVELOPMENTAL DISORDERS” (The Broad Institute, Inc., priority 2019, published 2022).
Entries after “also recorded” stand apart in the source; their conditions may differ.

Tests used:
WT TRN neurons = assay: Whole-cell patch-clamp rebound burst firing in acute brain slices, WT mice; assay type: cell-based
Experimental: (§1) For conducting slice electrophysiology analysis, whole-cell patch-clamp recordings were performed using horizontal slices for the rebound bursting assays and angled-coronal thalamocortical slices for the synaptic optogenetics experiments (Agmon et al., 1991). 21-35 day old male C57BL6 mice and Ptchd1 Y/− (knockout) mice were used. Animals were transcardially perfused under isoflurane anesthesia with an ice-cold cutting solution (194 mM Sucrose, 30 mM NaCl, 4.5 mM KCl, 1.2 mM NaH2PO4, 10 mM Glucose, 2 mM MgCl2, 0.2 mM CaCl2, and 26 mM NaHCO3). Mice were then decapitated and the brains were carefully dissected out. Both cerebellum and olfactory bulb were removed from the brain and were placed and glued onto the stage of a Leica Vibratome with the ventral surface down and the pial surface towards the blade. 250 micron thick slices containing the TRN were then collected and recovered in regular artificial cerebrospinal fluid (aCSF; 119 mM NaCl, 2.3 mM KCl, 1 mM NaH2PO4; 11 mM Glucose, 1.3 mM MgCl2, 2.5 mM CaCl2), 26 mM NaHCO3) heated to 32° C. for 10 minutes and then at room temperature for at least 1 hr. All buffers were continuously bubbled with 95% O2/5% C02. Slices were then transferred to a submersion recording chamber where they were perfused with aCSF at a rate of 2 ml/min at room temperature. Patch recording pipettes were pulled using a Flaming/Brown micropipette puller (Sutter Instruments) and Borosilicate glass (KG33, King Precision Glass). The DC resistances were ˜4-6 MΩ. Potassium methanesulfonate based internal solution (140 mM KMeSO3; 10 mM KCl; 10 mM HEPES; 0.1 mM EGTA; 4 mM Mg-ATP; 0.2 mM Na-GTP; 10 mM hosphocreatine) was used. Neurons were visualized using infrared differential interference contrast (IR-DIC) microscopy (Olympus, BX51W1) with an upright microscope digital camera.
The recordings were made with a microelectrode amplifier with bridge and voltage clamp modes of operation (Multiclamp 700B, Molecular Devices, San Jose, Calif., USA). Signals were low-pass filtered at 2 kHz and sampled at 10-20 kHz with a Digidata 1440A (Molecular Devices, San Jose, Calif., USA). Data were stored on a computer for subsequent off-line analysis. Cells with the series resistance (Rs, typically 8-12 MΩ) changed by >20% were excluded for data analysis. In addition, cells with Rs more than […] at any time during the recordings were discarded.

thalamo-TRN synapses = assay: Optogenetically evoked EPSCs in patched TRN neurons, thalamo-TRN pathway; assay type: cell-based, mice; details: patched TRN neurons, LY379268 bath application
Experimental: as §1, with “camera. […]” for “camera.”
After allowing 1-2 weeks for mcherry-dflox.hChR2.EF1.AAV1 expression, acute somatosensory thalamocortical or horizontal brain slices were freshly obtained for in vitro recording and optogenetic stimulation (250 um thick, thalamocortical slices containing TRN from angled-coronal sections; Agmon and Connors, 1991) for optogenetic analysis. In brief, patch clamp recordings in voltage clamp configuration were performed while the Cortico-TRN or Thalamic-TRN pathway was activated by applying a blue LED (400-450 nm) light pulses (Lumen 300-LED Fluorescence Excitation Illumination System). For synaptic stimulation, neurons were held at −70 mV while 0.1-1.5 ms flashes were delivered directly to the recorded cell soma delivered through the 40× water immersion objective. […]

TRN neurons = assay: Spontaneous EPSC recordings from TRN neurons, WT mice; assay type: cell-based; details: LY379268 1 uM, with PTX
Experimental: as §1, with “Patch recording pipettes were pulled using a Flaming/Brown micropipette puller (Sutter Instruments) and Borosilicate glass (KG33, King Precision Glass). The DC resistances were ˜4-6 MΩ. Potassium methanesulfonate based internal solution (140 mM KMeSO3; 10 mM KCl; 10 mM HEPES; 0.1 mM EGTA; 4 mM Mg-ATP; 0.2 mM Na-GTP; 10 mM hosphocreatine) was used. Neurons were visualized using infrared differential interference contrast (IR-DIC) microscopy (Olympus, BX51W1) with an upright microscope digital camera.” left out

Compound: N[C@@]1(C(=O)O)COC2C(C(=O)O)C21 (stereo in doubt) [LY379268, (1R,4R,5S,6R)-4-Amino-2-oxabicyclo[3.1.0] hexane-4,6-dicarboxylic acid]
- rebound burst firing, occlusion experiment (WT TRN neurons; LY379268 applied in the presence of (after pretreatment with) ML337): no change in repetitive bursting; also recorded: occluded in the presence of ML337
- number of rebound burst firings (WT TRN neurons; WT TRN neurons, LY379268 1 μM, after somatic hyperpolarization pulse, holding potentials −80 mV to −50 mV): significant increase in the repetitive rebound bursting; also recorded: increase in the number of rebound burst firings; also recorded: Significant changes were detected in a membrane holding potentials between −70 mV and −60 mV; also recorded: Significant changes were detected at membrane holding potentials as indicated
- thalamo-TRN evoked EPSCs (thalamo-TRN synapses): did not affect the thalamo-TRN evoked EPSCs
- frequency of sEPSCs (TRN neurons): significantly reduced the frequency
